Test results from patent US20040018528A1, “Novel biomarkers of tyrosine kinase inhibitor exposure and activity in mammals” (Sugen, Inc., priority 2002, published 2004).
Values joined by “and” are separate entries in the source; they are usually repeats but may differ in a detail not shown here. Equal entries are not always repeated. “Also recorded” adds a separate entry of the source.

Assays:
IP-10 = IP-10 plasma ELISA, Compound 1 Phase I trials; assay type: in vivo, human
Description: (§1) In Trials A and B, patients received Compound 1.
(§2) Data analysis was performed for each marker.

42 human cytokines = assay: Antibody membrane array (RayBio Human Cytokine Array III) screen of patient plasma; assay type: in vivo; conditions: plasma of one Trial B patient, confirmed by MIG ELISA
Description: All of the ELISA-based screening of candidate proteins were performed with commercially available ELISA kits; the kits for the biomarkers described in this report are all available from R&D Systems (Minneapolis, Minn.). A commercially available membrane array containing antibodies for the detection of 42 human cytokines was also used in screening of a patient's plasma samples before and after treatment. The antibody array used in cytokine screening (RayBio Human Cytokine Array III) was from RayBiotech (Norcross, Ga.).

pro-MMP1 = pro-MMP1 levels in plasma of Study B patients; assay type: in vivo, human; conditions: Study B patients after receiving compound
C-reactive protein (CRP) = assay: C-reactive protein plasma ELISA; assay type: in vivo, human; conditions: patients, FIG. 27
Description: (§3) Reagents for FLT3 ligand (FL) and IL-6 ELISA kits were obtained from R&D Systems, Inc. (Minneapolis, Minn.; catalog #s DFK00, Q6000). C-reactive protein (CRP) (accession ID AAA 52075) ELISA kits were obtained from KMI Diagnostics (Minneapolis, Minn.; catalog #EU59131). ELISAs were performed on patient plasma according to the manufacturers' instructions. The FL and CRP kits relied on a colorimetric readout; the optical density of each well was determined using a microplate spectrophotometer and data was analyzed using KC-4 software from Bio-Tek Instruments, Inc. The IL-6 kit was a chemiluminescent sandwich ELISA; luminescence values were determined on a microplate luminometer. SOFTmaxPRO software was used to extrapolate cytokine concentrations from the standard curves.

MIG = MIG plasma ELISA, Compound 1 Phase I trials; assay type: in vivo, human; conditions: individual patients; in pg/mL (unit assumed)
Description: as §1, §2

[1] = test system: OB-cadherin 1 (cadherin 11); assay: Immunohistochemistry of OB-cadherin 1 in Colo205 xenograft tumors; assay type: in vivo, mice; conditions: 24 or 48 hours exposure, vs vehicle treated, IHC
Excerpt: Colo205 human colon xenograft tumors were isolated and fixed in Streck Tissue Fixative (Streck Laboratories, Inc., La Vista, […].). Samples used in immunohistochemistry were sent out to BioPathology Sciences Medical Corporation (South San Francisco, Calif.) for paraffin embedding and sectioning.
A rabbit polyclonal antibody recognizing the cytoplasmic tail region of OB-cadherin 1 (cadherin 11) was purchased from Zymed Laboratories, Inc. (Zymed reagent #71-7600; South San Francisco, Calif.).
Sections (4-5 μm) stained using an automated immunohistochemistry system (Benchmark System, Ventana Medical Systems, Inc., Tucson, Ariz.). In brief, slides were deparaffinized using heat at 75° C. and Ventana's EZ Prep product (Ventana reagent #950-102). Antigen retrieval was performed by incubating the slides for 30 min with Ventana's CC2 product (Ventana reagent #950-123), a citrate-based solution with pH 6.0. Primary antibody (5 μg/ml) was incubated for 24 min at room temperature, followed by a secondary detection system, using biotinylated secondary antibody (Vector anti-rabbit secondary, BA-1000, at 2.5 μg/ml; Vector Laboratories, Burlingame, Calif.) with incubation time of 8 min. […] All samples analyzed for OB-cadherin 1 expression were also stained with the omission of primary antibody as a negative control.

HUVEC = assay: pro-MMP1 ELISA of HUVEC conditioned media; assay type: cell-based, human; conditions: for Average pro-MMP1: HUVEC conditioned media
Description: Cells were propagated at 37° C. in a humidifed atmosphere of 5% CO2 using standard cell culture techniques. Cells were plated in 10-cm tissue culture plates at 8.5×10^5 cells/ml. After 6 hours the cells were quiesced by serum starvation overnight in starvation medium (EBM containing 0.5% FBS). […] Conditioned media was stored at −70° C. until subsequent analysis.
Reagents for human pro-Matrix Metalloproteinase 1 (pro-MMP-1) ELISA kits were obtained from R&D Systems, Inc. (Minneapolis, Minn.; catalog #DMP100). ELISAs were performed on conditioned media samples according to the manufacturers' instructions. The optical density of each well was determined using a universal microplate spectrophotometer (μQuant) from Bio-Tek Instruments, Inc. (Winooski, Vt.). KC-4 software from Bio-Tek Instruments, Inc. was used to extrapolate cytokine concentrations from the standard curves.

VEGF/PLGF heterodimers = assay: Hybrid ELISA for VEGF/PLGF heterodimers in patient plasma; assay type: in vivo, human; conditions: Trial C
Excerpt: Heterodimers of VEGF and PLGF have been reported in the scientific literature. To measure heterodimers, a hybrid ELISA assay was used, combining reagents from both the R&D Systems VEGF and PLGF ELISA kits (where VEGF antibodies are used in capture step and PLGF antibodies are used in detection step).

IL-6 = IL-6 plasma ELISA; assay type: in vivo, human; conditions: patients, FIG. 26
Description: as §3

FLT3 ligand (FL) = assay: FLT3 ligand plasma ELISA; assay type: in vivo, human
Description: as §3, with “C-reactive protein (CRP) (accession ID AAA 52075) ELISA kits were obtained from KMI Diagnostics (Minneapolis, Minn.; catalog #EU59131).” left out

HUVECs = assay: 2D gel analysis of conditioned media of VEGF-stimulated HUVECs; assay type: cell-based, human; conditions: HUVEC conditioned media; VEGF and compound 1 (1 uM) at 24 h; Run #1, Run #2
Description: Thawed conditioned media samples were precipitated with three volumes of acetone for 2 hours at −20° C., then centrifuged at 13000 RPM for 15 minutes. […] Protein was quantitated with Bio-Rad Protein Assay (cat#500-0006) using the microassay for cuvettes protocol.
Samples were diluted to 0.3 μg/μl with IEF Buffer containing 1% IPG Buffer pH 3-10 (Amersham). Eighteen centimeter IPG strips pH 3-10 (Amersham) were rehydrated with 120 μg sample (400 μL) under Drystrip Cover Fluid (Amersham) on the IPGphor (Amersham) at 20° C. for 18 hours. Strips were focused with the following program: 200 volts for 1 hour, ramped from 200 volts to 1000 volts over two hours, held at 1000 volts for 1 hour, ramped from 1000 volts to 8000 volts over 6 hours, then held at 8000 volts for 10 hours. […] Gels were over-layed with water-saturated butanol (Fisher), and left to polymerize at room temperature overnight.
Focused strips were equilibrated for ten minutes with gentle shaking in 10 milliliters Equilibration Buffer: 6 M Urea (Fisher), 50 mM tris-HCl pH 8.8 (Fisher), 30% glycerol (Fisher), 2% SDS (Fisher) with 1% dithiothreitol followed by ten minutes in Equilibration Buffer with 4% iodoacetamide.
The equilibrated strips were loaded onto the gel surfaces and sealed with hot agarose overlay solution containing 0.5% agarose in 50 mM tris-HCl pH 6.8, 2% SDS. […]

I-TAC = I-TAC plasma ELISA, Compound 1 Phase I trials; assay type: in vivo, human
Description: as §1, §2

[2] = patients checked for both proteins

CCN(CC)CCNC(=O)c1c(C)[nH]c(C=C2C(=O)Nc3ccc(F)cc32)c1C [Compound 1, 5-(5-Fluoro-2-oxo-1,2-dihydro-indol-3-ylidenemethyl)-2,4-dimethyl-1H-pyrrole-3-carboxylic acid (2-diethylamino-ethyl)-amide]
IP-10 plasma level, end C1 dosing (IP-10; individual patients, >500 = above highest standard): >500 | patients with MIG and IP-10 induced in tandem (IP-10; [2]): 6 of 6 | level of MIG after treatment vs baseline (42 human cytokines): significantly higher | pro-MMP1 levels in plasma of patients (pro-MMP1): increased | C-reactive protein (CRP) plasma level during treatment (C-reactive protein (CRP)): induced | MIG plasma level, end C1 dosing (MIG): 138.56 and 739.71 | protein expression of OB-cadherin 1 (cadherin 11) [1]: up-regulated; also recorded: up-regulation | Average pro-MMP1 (HUVEC; 10 nM pre-treatment, 10 min post-VEGF): 5.41 ng/mL | Average pro-MMP1 (HUVEC; 10 nM pre-treatment, 8 hr post-VEGF): 14.93 ng/mL | Average pro-MMP1 (HUVEC; 10 nM pre-treatment, 24 hr post-VEGF): 70.21 ng/mL | Average pro-MMP1 (HUVEC; 10 nM pre-treatment, 48 hr post-VEGF): 135.35 ng/mL | Average pro-MMP1 (HUVEC; 100 nM pre-treatment, 10 min post-VEGF): 5.78 ng/mL | Average pro-MMP1 (HUVEC; 100 nM pre-treatment, 8 hr post-VEGF): 12.75 ng/mL | Average pro-MMP1 (HUVEC; 100 nM pre-treatment, 24 hr post-VEGF): 50.26 ng/mL | Average pro-MMP1 (HUVEC; 100 nM pre-treatment, 48 hr post-VEGF): 128.75 ng/mL | Average pro-MMP1 (HUVEC; 1 uM pre-treatment, 10 min post-VEGF): 5.04 ng/mL | Average pro-MMP1 (HUVEC; 1 uM pre-treatment, 8 hr post-VEGF): 14.48 ng/mL | Average pro-MMP1 (HUVEC; 1 uM pre-treatment, 24 hr post-VEGF): 50.42 ng/mL | Average pro-MMP1 (HUVEC; 1 uM pre-treatment, 48 hr post-VEGF): 103.09 ng/mL | levels of pro-MMP1 in HUVEC conditioned media (HUVEC; VEGF-treated HUVEC, pre-incubation at 10 nM, 100 nM or 1 uM): decreased | patients tested with increase in plasma levels of VEGF/PLGF heterodimer (VEGF/PLGF heterodimers): 3 of 3 | interleukin-6 (IL-6) plasma level during treatment (IL-6): induced | patients exhibiting an increase in FLT3 ligand (FL) concentration (FLT3 ligand (FL); 18 patients enrolled in Trial B, day 1 to day 28): 100% | FLT3 ligand (FL) plasma level during treatment (FLT3 ligand (FL); expanded set of patients, FIG. 25): induced; also recorded: Dramatic induction | Spot #1202 (pro-MMP-1) quantification, 2D gel (HUVECs): 270 and 484.7 | I-TAC plasma level, end C1 dosing (I-TAC; individual patients, in pg/mL (unit assumed)): >4000.0 and 212.26 | patients with MIG and I-TAC induced in tandem (I-TAC; [2]): 5 of 5
